Results from the NIST ThermoML archive (doi:10.1021/je8008073).
± gives the expanded uncertainty stated by the source.

Assay: wn = mass fraction of the nth substance listed
Conditions: Liquid, Vibrating tube method

CC(C)Cc1ccccc1 [(2-methylpropyl)benzene] + CCCCCCCCCCCC
Conditions | mass density [kg/m3]
298.15 K, 10000 kPa, w1 = 0.49 | 797.4 ± 1
298.15 K, 10000 kPa, w1 = 0.5 | 798.6 ± 1
298.15 K, 10000 kPa, w1 = 0.51 | 799.7 ± 1
298.15 K, 10000 kPa, w1 = 0.52 | 800.6 ± 1
298.15 K, 10000 kPa, w2 = 0.5 | 798.6 ± 1
298.15 K, 12000 kPa, w1 = 0.48 | 797.9 ± 1
298.15 K, 12000 kPa, w1 = 0.49 | 798.7 ± 1
298.15 K, 12000 kPa, w1 = 0.5 | 799.9 ± 1
298.15 K, 12000 kPa, w1 = 0.51 | 801 ± 1
298.15 K, 12000 kPa, w1 = 0.52 | 801.9 ± 1
298.15 K, 12000 kPa, w2 = 0.5 | 799.9 ± 1
298.15 K, 14000 kPa, w1 = 0.48 | 799.2 ± 1.1
298.15 K, 14000 kPa, w1 = 0.49 | 800.1 ± 1.1
298.15 K, 14000 kPa, w1 = 0.5 | 801.3 ± 1.1
298.15 K, 14000 kPa, w1 = 0.51 | 802.3 ± 1.1
298.15 K, 14000 kPa, w1 = 0.52 | 803.2 ± 1.1
298.15 K, 14000 kPa, w2 = 0.5 | 801.3 ± 1.1
298.15 K, 16000 kPa, w1 = 0.48 | 800.5 ± 1.1
298.15 K, 16000 kPa, w1 = 0.49 | 801.3 ± 1.1
298.15 K, 16000 kPa, w1 = 0.5 | 802.6 ± 1.1
298.15 K, 16000 kPa, w1 = 0.51 | 803.5 ± 1.1
298.15 K, 16000 kPa, w1 = 0.52 | 804.5 ± 1.1
298.15 K, 16000 kPa, w2 = 0.5 | 802.6 ± 1.1
298.15 K, 18000 kPa, w1 = 0.48 | 801.7 ± 1.1
298.15 K, 18000 kPa, w1 = 0.49 | 802.6 ± 1.1
298.15 K, 18000 kPa, w1 = 0.5 | 803.8 ± 1.1
298.15 K, 18000 kPa, w1 = 0.51 | 804.7 ± 1.1
298.15 K, 18000 kPa, w1 = 0.52 | 805.7 ± 1.1
298.15 K, 18000 kPa, w2 = 0.5 | 803.8 ± 1.1
298.15 K, 20000 kPa, w1 = 0.48 | 803.1 ± 1.1
298.15 K, 20000 kPa, w1 = 0.49 | 803.9 ± 1.1
298.15 K, 20000 kPa, w1 = 0.5 | 805.1 ± 1.1
298.15 K, 20000 kPa, w1 = 0.51 | 806 ± 1.1
298.15 K, 20000 kPa, w1 = 0.52 | 807 ± 1.1
298.15 K, 20000 kPa, w2 = 0.5 | 805.1 ± 1.1
300.65 K, 100 kPa, w2 = 0.5 | 789.9 ± 1
300.65 K, 2000 kPa, w2 = 0.5 | 791.2 ± 1
300.65 K, 4000 kPa, w2 = 0.5 | 792.6 ± 1
300.65 K, 6000 kPa, w2 = 0.5 | 794 ± 1
300.65 K, 8000 kPa, w2 = 0.5 | 795.4 ± 1
300.65 K, 10000 kPa, w2 = 0.5 | 796.8 ± 1
300.65 K, 12000 kPa, w2 = 0.5 | 798.1 ± 1
300.65 K, 14000 kPa, w2 = 0.5 | 799.4 ± 1.1
300.65 K, 16000 kPa, w2 = 0.5 | 800.7 ± 1.1
300.65 K, 18000 kPa, w2 = 0.5 | 802 ± 1.1
300.65 K, 20000 kPa, w2 = 0.5 | 803.3 ± 1.1
303.15 K, 100 kPa, w2 = 0.5 | 788.1 ± 1
303.15 K, 2000 kPa, w2 = 0.5 | 789.6 ± 1
303.15 K, 4000 kPa, w2 = 0.5 | 791.1 ± 1
303.15 K, 6000 kPa, w2 = 0.5 | 792.5 ± 1
303.15 K, 8000 kPa, w2 = 0.5 | 794 ± 1
303.15 K, 10000 kPa, w2 = 0.5 | 795.4 ± 1
303.15 K, 12000 kPa, w2 = 0.5 | 796.7 ± 1
303.15 K, 14000 kPa, w2 = 0.5 | 798.1 ± 1.1
303.15 K, 16000 kPa, w2 = 0.5 | 799.4 ± 1.1
303.15 K, 18000 kPa, w2 = 0.5 | 800.8 ± 1.1
303.15 K, 20000 kPa, w2 = 0.5 | 802 ± 1.1
